Drawing on patent publication US20250059171A1 (Hoffmann-La Roche Inc., priority 2021, published 2025), this text covers IC50 for 16 compounds.

Test [1] concerns the target SARS-CoV 3CLpro (Severe acute respiratory syndrome coronavirus, UniProt P0C6X7). The test can be described thus: biochemical.
Test [2] deals with HCoV-229E 3CLpro (Human coronavirus 229E, UniProt P0C6X1). In words: HCoV-229E 3CLpro inhibition assay (FRET). The class given is biochemical.
Test [3] concerns the target MERS-CoV 3CLpro (Middle East respiratory syndrome-related coronavirus, UniProt K9N7C7). In words: biochemical.
The target of test [4] is SARS-CoV-2 3CLpro (Severe acute respiratory syndrome coronavirus 2, UniProt P0DTD1). In words: biochemical.

Chain of MERS-CoV 3CLpro (K9N7C7 3248-3553): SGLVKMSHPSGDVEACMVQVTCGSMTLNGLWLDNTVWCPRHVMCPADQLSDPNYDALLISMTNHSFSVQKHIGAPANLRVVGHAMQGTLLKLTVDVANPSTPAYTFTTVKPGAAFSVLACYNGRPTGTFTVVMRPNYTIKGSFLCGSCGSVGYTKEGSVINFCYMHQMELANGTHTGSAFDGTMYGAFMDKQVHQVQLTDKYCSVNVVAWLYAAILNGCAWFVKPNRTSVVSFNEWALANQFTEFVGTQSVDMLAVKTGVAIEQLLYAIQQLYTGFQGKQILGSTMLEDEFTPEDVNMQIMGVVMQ
Chain of HCoV-229E 3CLpro (P0C6X1 2966-3267): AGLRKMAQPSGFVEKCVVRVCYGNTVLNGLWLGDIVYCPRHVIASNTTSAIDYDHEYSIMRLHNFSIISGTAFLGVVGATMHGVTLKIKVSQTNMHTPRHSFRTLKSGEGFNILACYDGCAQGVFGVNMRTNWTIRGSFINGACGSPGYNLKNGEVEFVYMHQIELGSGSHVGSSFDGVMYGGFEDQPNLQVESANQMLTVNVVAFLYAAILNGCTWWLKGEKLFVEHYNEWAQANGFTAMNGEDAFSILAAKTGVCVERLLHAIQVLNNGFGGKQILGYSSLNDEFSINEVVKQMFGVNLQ

`CC(=O)N[C@H](C(=O)N1C[C@@H]2CCC[C@@H]2[C@H]1C(=O)NN(C[C@@H]1CCNC1=O)C(=O)[C@H](F)Cl)C(C)(C)C` [Example 29, N-[(1S)-1-[(3S,3aS,6aR)-3-[[[(2R)-2-chloro-2-fluoro-acetyl]-[[(3S)-2-oxopyrrolidin-3-yl]methyl]amino]carbamoyl]-3,3a,4,5,6,6a-hexahydro-1H-cyclopenta[c]pyrrole-2-carbonyl]-2,2-dimethyl-propyl]acetamide]: the IC50 in test [1] was determined as 11 nM; in test [2], 28 nM; in test [3], 68 nM; in test [4], 10 nM.
As for `CCC(C)(C)[C@H](NC(=O)C1CC1)C(=O)N1C[C@H]2[C@@H]([C@H]1C(=O)NN(C[C@@H]1CCNC1=O)C(=O)[C@H](F)Cl)C2(C)C` [Example 142, N-[(1S)-1-[(1R,2S,5S)-2-[[[(2R)-2-chloro-2-fluoro-acetyl]-[[(3S)-2-oxopyrrolidin-3-yl]methyl]amino]carbamoyl]-6,6-dimethyl-3-azabicyclo[3.1.0]hexane-3-carbonyl]-2,2-dimethyl-butyl]cyclopropanecarboxamide], the IC50 in test [1] was determined as 13 nM; in test [2], 31 nM; in test [3], 83 nM; in test [4] it was 10 nM.
Regarding `CC(C)(C)[C@H](Nc1ccccn1)C(=O)N1C[C@@H]2CCC[C@@H]2[C@H]1C(=O)NN(C[C@@H]1CCNC1=O)C(=O)[C@H](F)Cl` [Example 184], the IC50 was found to be 41 nM in test [1], 86 nM in test [2], 275 nM in test [3] and 16 nM in test [4].
The matching figures for `CC1(C)[C@@H]2[C@@H](C(=O)NN(C[C@@H]3CCNC3=O)C(=O)[C@H](F)Cl)N(C(=O)[C@H](Cc3ccncc3)NC(=O)C(F)(F)F)C[C@@H]21` [Example 67, N-[(1S)-2-[(1R,2S,5S)-2-[[[(2R)-2-chloro-2-fluoro-acetyl]-[[(3S)-2-oxopyrrolidin-3-yl]methyl]amino]carbamoyl]-6,6-dimethyl-3-azabicyclo[3.1.0]hexan-3-yl]-2-oxo-1-(4-pyridylmethyl)ethyl]-2,2,2-trifluoro-acetamide]: 14 nM, 28 nM, 84 nM and 10 nM.
The matching figures for `CC[C@H](C)[C@H](NC(=O)[C@H](F)Cl)C(=O)N1C[C@@H]2CCC[C@@H]2[C@H]1C(=O)NN(C[C@@H]1CCCNC1=O)C(=O)[C@H](F)Cl` [Example 190, (2R)—N-[(1S,2S)-1-[(3S,3aS,6aR)-3-[[[(2R)-2-chloro-2-fluoro-acetyl]-[[(3S)-2-oxo-3-piperidyl]methyl]amino]carbamoyl]-3,3a,4,5,6,6a-hexahydro-1H-cyclopenta[c]pyrrole-2-carbonyl]-2-methyl-butyl]-2-chloro-2-fluoro-acetamide]: 11 nM, 29 nM, 59 nM and 8 nM.
Turning to `CC(C)(C)[C@H](Nc1cc(F)ncn1)C(=O)N1C[C@@H]2CCC[C@@H]2[C@H]1C(=O)NN(C[C@@H]1CCNC1=O)C(=O)[C@H](F)Cl` [Example 182], the IC50 worked out at 12 nM in test [1], 37 nM in test [2], 89 nM in test [3] and 11 nM in test [4].
With `CC(C)(C)[C@H](NC(=O)C1CC(F)(F)C1)C(=O)N1C[C@H]2[C@@H]([C@H]1C(=O)NN(C[C@@H]1CCNC1=O)C(=O)[C@H](F)Cl)C2(C)C` [Example 90, N-[(1S)-1-[(1R,2S,5S)-2-[[[(2R)-2-chloro-2-fluoro-acetyl]-[[(3S)-2-oxopyrrolidin-3-yl]methyl]amino]carbamoyl]-6,6-dimethyl-3-azabicyclo[3.1.0]hexane-3-carbonyl]-2,2-dimethyl-propyl]-3,3-difluoro-cyclobutanecarboxamide], the IC50 amounted to 12 nM in test [1], 22 nM in test [2], 55 nM in test [3] and 10 nM in test [4].
In the case of `CC(C)(C)[C@H](NC(=O)C(F)(F)F)C(=O)N1C[C@H](C(F)(F)F)C[C@H]1C(=O)NN(C[C@@H]1CCNC1=O)C(=O)[C@H](F)Cl` [Example 23, N-[(1S)-1-[(2S,4R)-2-[[[(2R)-2-chloro-2-fluoro-acetyl]-[[(3S)-2-oxopyrrolidin-3-yl]methyl]amino]carbamoyl]-4-(trifluoromethyl)pyrrolidine-1-carbonyl]-2,2-dimethyl-propyl]-2,2,2-trifluoro-acetamide], the IC50 is 11 nM in test [1], 21 nM in test [2], 65 nM in test [3] and 9 nM in test [4].
Regarding `CC[C@@H](C)[C@H](NC(=O)C1CC(F)(F)C1)C(=O)N1C[C@@H]2CCC[C@@H]2[C@H]1C(=O)NN(C[C@@H]1CCNC1=O)C(=O)[C@H](F)Cl` [Example 128, N-[(1S,2R)-1-[(3S,3aS,6aR)-3-[[[(2R)-2-chloro-2-fluoro-acetyl]-[[(3S)-2-oxopyrrolidin-3-yl]methyl]amino]carbamoyl]-3,3a,4,5,6,6a-hexahydro-1H-cyclopenta[c]pyrrole-2-carbonyl]-2-methyl-butyl]-3,3-difluoro-cyclobutanecarboxamide], the IC50 in test [1] stood at 18 nM; in test [2], 36 nM; in test [3] it was 97 nM; in test [4] it was 11 nM.
As for `CC[C@H](C)[C@H](NC(=O)C1(F)CC1)C(=O)N1C[C@H]2[C@@H]([C@H]1C(=O)NN(C[C@H]1CCCNC1=O)C(=O)[C@H](F)Cl)C2(C)C` [Example 166b, N-[(1S,2S)-1-[(1R,2S,5S)-2-[[[(2R)-2-chloro-2-fluoro-acetyl]-[[(3R)-2-oxo-3-piperidyl]methyl]amino]carbamoyl]-6,6-dimethyl-3-azabicyclo[3.1.0]hexane-3-carbonyl]-2-methyl-butyl]-1-fluoro-cyclopropanecarboxamide], the IC50 in test [1] came to 30 nM; in test [2], 51 nM; in test [3] it was 239 nM; in test [4], 19 nM.
Turning to `CC[C@H](C)[C@H](NC(=O)C1(F)CC1)C(=O)N1C[C@H]2[C@@H]([C@H]1C(=O)NN(C[C@@H]1CCNC1=O)C(=O)[C@H](F)Cl)C2(C)C` [Example 59, N-[(1S,2S)-1-[(1R,2S,5S)-2-[[[(2R)-2-chloro-2-fluoro-acetyl]-[[(3S)-2-oxopyrrolidin-3-yl]methyl]amino]carbamoyl]-6,6-dimethyl-3-azabicyclo[3.1.0]hexane-3-carbonyl]-2-methyl-butyl]-1-fluoro-cyclopropanecarboxamide], the IC50 turned out to be 17 nM in test [1], 21 nM in test [2], 62 nM in test [3] and 7 nM in test [4].
In the case of `CCC(CC)[C@H](NC(=O)C1(F)CC1)C(=O)N1C[C@H]2[C@@H]([C@H]1C(=O)NN(C[C@@H]1CCNC1=O)C(=O)[C@H](F)Cl)C2(C)C` [Example 132, N-[(1S)-1-[(1R,2S,5S)-2-[[[(2R)-2-chloro-2-fluoro-acetyl]-[[(3S)-2-oxopyrrolidin-3-yl]methyl]amino]carbamoyl]-6,6-dimethyl-3-azabicyclo[3.1.0]hexane-3-carbonyl]-2-ethyl-butyl]-1-fluoro-cyclopropanecarboxamide], the IC50 in test [1] is 14 nM; in test [2], 25 nM; in test [3], 106 nM; in test [4], 10 nM.
Regarding `CC(C)(C)[C@H](NC(=O)C1CC1)C(=O)N1C[C@@H]2CCC[C@@H]2[C@H]1C(=O)NN(C[C@@H]1CCNC1=O)C(=O)[C@H](F)Cl` [Example 31, N-[(1S)-1-[(3S,3aS,6aR)-3-[[[(2R)-2-chloro-2-fluoro-acetyl]-[[(3S)-2-oxopyrrolidin-3-yl]methyl]amino]carbamoyl]-3,3a,4,5,6,6a-hexahydro-1H-cyclopenta[c]pyrrole-2-carbonyl]-2,2-dimethyl-propyl]cyclopropanecarboxamide], the IC50 worked out at 12 nM in test [1], 28 nM in test [2], 76 nM in test [3] and 8 nM in test [4].
With `CCC(CC)[C@H](NC(=O)C1CC(F)(F)C1)C(=O)N1C[C@@H]2CCC[C@@H]2[C@H]1C(=O)NN(C[C@@H]1CCNC1=O)C(=O)[C@H](F)Cl` [Example 134, N-[(1S)-1-[(3S,3aS,6aR)-3-[[[(2R)-2-chloro-2-fluoro-acetyl]-[[(3S)-2-oxopyrrolidin-3-yl]methyl]amino]carbamoyl]-3,3a,4,5,6,6a-hexahydro-1H-cyclopenta[c]pyrrole-2-carbonyl]-2-ethyl-butyl]-3,3-difluoro-cyclobutanecarboxamide], the IC50 was 14 nM in test [1], 36 nM in test [2], 97 nM in test [3] and 10 nM in test [4].
The matching figures for `CCC(CC)[C@H](NC(=O)C(F)F)C(=O)N1C[C@@H]2CCC[C@@H]2[C@H]1C(=O)NN(C[C@@H]1CCCNC1=O)C(=O)[C@H](F)Cl` [Example 174, N-[(1S)-1-[(3S,3aS,6aR)-3-[[[(2R)-2-chloro-2-fluoro-acetyl]-[[(3S)-2-oxo-3-piperidyl]methyl]amino]carbamoyl]-3,3a,4,5,6,6a-hexahydro-1H-cyclopenta[c]pyrrole-2-carbonyl]-2-ethyl-butyl]-2,2-difluoro-acetamide]: 12 nM, 29 nM, 123 nM and 10 nM.
As for `CC(C)(C)C(=O)N[C@H](C(=O)N1C[C@H]2[C@@H]([C@H]1C(=O)NN(C[C@@H]1CCNC1=O)C(=O)[C@H](F)Cl)C2(C)C)C(C)(C)C` [Example 11, N-[(1S)-1-[(1R,2S,5S)-2-[[[(2R)-2-chloro-2-fluoro-acetyl]-[[(3S)-2-oxopyrrolidin-3-yl]methyl]amino]carbamoyl]-6,6-dimethyl-3-azabicyclo[3.1.0]hexane-3-carbonyl]-2,2-dimethyl-propyl]-2,2-dimethyl-propanamide], the IC50 in test [1] came to 34 nM; in test [2] it was 56 nM; in test [3] it was 260 nM; in test [4], 218 nM.

One may read the IC50 as the point on the concentration scale where inhibition reaches its midpoint.
